In test [1] the target is T1, recombinant human arginase 2 (Homo sapiens, UniProt P78540).
T1 construct: made in house; host or cells: CHO
T1 sequence (P78540 23-354): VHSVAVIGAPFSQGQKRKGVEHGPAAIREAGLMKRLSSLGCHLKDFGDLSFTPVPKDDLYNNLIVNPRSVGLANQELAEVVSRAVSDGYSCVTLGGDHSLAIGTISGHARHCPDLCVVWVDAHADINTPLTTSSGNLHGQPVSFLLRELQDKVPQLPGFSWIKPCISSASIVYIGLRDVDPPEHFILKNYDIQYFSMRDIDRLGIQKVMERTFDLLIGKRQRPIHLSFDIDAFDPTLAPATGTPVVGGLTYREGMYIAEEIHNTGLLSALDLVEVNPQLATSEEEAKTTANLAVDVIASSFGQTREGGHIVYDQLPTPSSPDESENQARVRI
The experiment in a line: Human arginase activity assay (urea measurement), arginase 2. The test is classed as biochemical. To be noted: for selected examples class estimated from % of inhibition at 1 μM and 100 μM, * = most potent diastereoisomer or mixture of diastereoisomers, read-out: Activity Class (ARG II). How it is done:
(§1) Human Arginase Activity Assay
An enzymatic assay with recombinant human arginases 1 (Biolegend, Cat. No. 552502) and 2 (homemade in eukaryotic expression system of CHO, purified by FPLC) was used in order to assess inhibitory activity of the compounds. The assay was run in the 96-well plate format, each reaction in the total volume of 100 uL. The assay is based on urea measurement, which is a product of L-arginine enzymatic degradation. (Baggio et al. J Pharmacol. Exp. Ther. 1999, 290, 1409-1416). The color product is developed by adding a mixture of reagent A (4 mM oPA in 50 mM boric acid in 1M sulfuric acid, 0.03% Brij-35) and reagent B (4 mM NED in 50 mM boric acid in 1M sulfuric acid, 0.03% Brij-35) in equal proportions. The absorbance for each well was measured at 530 nm.
(§2) Briefly, to each well of a 96-well microtiter plate 40 μL of enzyme in the reaction assay buffer (pH 7.4, 100 mM sodium phosphate buffer, 130 mM NaCl, 1 mg/mL albumin), 50 μL of the test compound solution and 10 μL of enzyme substrate solution (L-arginine hydrochloride, natural pH 5.6, final concentration 20 mM and a cofactor—manganese chloride, final concentration 150 μM) was added. For positive control, only the enzyme and substrate were used, the negative controls contained substrate solution with assay buffer. After incubating the microtiter plate at 37° C. for 60 min 150 μL of mixed reagents A and B was added to each well to stop the reaction. Absorbance was measured (λ=530 nm) 20 minutes later, after color development. The urea production in the absence of any compound was considered the maximum arginase activity. The absorbance in the absence of arginase (background) was subtracted from all the values. The normalized OD was used to generate a concentration-response curve by plotting the percent of inhibition against log[concentration] of the compound and using regression analysis (GraphPad Prism 7.0) to compute the IC50 values.
For selected examples the activity class for ARG2 was estimated based on % of inhibition for 1 μM and 100 μM concentration of tested compounds.

The target of test [2] is T2, recombinant human arginase 1 (Homo sapiens, UniProt P05089).
T2 construct: purchased Biolegend 552502
T2 sequence (P05089 1-322): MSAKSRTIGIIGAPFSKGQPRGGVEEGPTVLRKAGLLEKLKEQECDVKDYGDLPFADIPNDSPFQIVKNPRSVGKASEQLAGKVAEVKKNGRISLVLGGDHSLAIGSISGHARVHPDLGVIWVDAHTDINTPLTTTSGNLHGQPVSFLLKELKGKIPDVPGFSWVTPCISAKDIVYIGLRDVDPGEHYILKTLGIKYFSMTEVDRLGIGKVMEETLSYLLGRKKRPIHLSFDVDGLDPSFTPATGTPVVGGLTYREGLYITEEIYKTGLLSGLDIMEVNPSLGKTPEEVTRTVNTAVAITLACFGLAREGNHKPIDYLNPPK
Nature of the test: Human arginase activity assay (urea measurement), arginase 1. The format is biochemical. To be noted: recombinant human arginase 1, pH 7.4, 37° C., 60 min; * = value for the most potent diastereoisomer or the mixture of diastereoisomers; read-out: Activity Class (ARG I). How it is done: as §1
The assay was run in the 96-well plate format, each reaction in the total volume of 100 uL. The assay is based on urea measurement, which is a product of L-arginine enzymatic degradation. […] The color product is developed by adding a mixture of reagent A (4 mM oPA in 50 mM boric acid in 1M sulfuric acid, 0.03% Brij-35) and reagent B (4 mM NED in 50 mM boric acid in 1M sulfuric acid, 0.03% Brij-35) in equal proportions. The absorbance for each well was measured at 530 nm.
as §2, with “For” for “Briefly, to each well of a 96-well microtiter plate 40 μL of enzyme in the reaction assay buffer (pH 7.4, 100 mM sodium phosphate buffer, 130 mM NaCl, 1 mg/mL albumin), 50 μL of the test compound solution and 10 μL of enzyme substrate solution (L-arginine hydrochloride, natural pH 5.6, final concentration 20 mM and a cofactor—manganese chloride, final concentration 150 μM) was added. For”

Where a name gives a salt, the structure may show the parent alone.

For `C[C@H]1[C@H](CCB(O)O)CCC1(N)C(=O)O` (mixture of isomers) [Example 2, rac-(2S,3R)-1-amino-3-(2-boronoethyl)-2-methylcyclopentane-1-carboxylic acid], the IC50 in test [1] and in test [2] was above 100 µM in each case.

Take `NC[C@H]1C[C@](N)(C(=O)O)C[C@@H]1CCB(O)O` (racemic) [Example 6, rac-(1S,3S,4S)-1-Amino-3-(aminomethyl)-4-(2-boronoethyl)cyclopentane-1-carboxylic acid dihydrochloride]: the IC50 in test [1] and in test [2] was 1 to 10 µM each time.

With `N[C@@]1(C(=O)O)C[C@H](CCB(O)O)[C@@H](O)C1` (racemic) [Example 4, rac-(1S,3S,4S)-1-Amino-3-(2-boronoethyl)-4-hydroxycyclopentane-1-carboxylic acid hydrochloride], the IC50 in test [1] and in test [2] was 10 to 100 µM each time.

With `CC1=CCC(CCB(O)O)CC1(N)C(=O)O` (stereo not drawn) [Example 51, 1-amino-5-(2-boronoethyl)-2-methylcyclohex-2-enecarboxylic acid hydrochloride], the IC50 was 1 to 10 µM in test [1] and 0.1 to 1 µM in test [2].

With `CN(C)C[C@@H]1CC[C@@H](CCB(O)O)C[C@@]1(N)C(=O)O` (racemic) [Example 19, rac-(1S,2S,5R)-1-amino-5-(2-boronoethyl)-2-((dimethylamino)methyl)cyclohexane-1-carboxylic acid dihydrochloride], the IC50 in test [1] and in test [2] was 1 to 10 µM in each case.

For `CN(C[C@@H]1CC[C@@H](CCB(O)O)C[C@]1(N)C(=O)O)c1ccccc1` (racemic) [Example 40, rac-(1R,2S,5R)-1-amino-5-(2-boronoethyl)-2-((methyl(phenyl)amino)methyl)cyclohexanecarboxylic acid dihydrochloride], the IC50 in test [1] and in test [2] was 1 to 10 µM throughout.

For `NC1(C(=O)O)CCCCC(CCB(O)O)C1` (stereo not drawn) [Example 12, 1-Amino-3-(2-boronoethyl)cycloheptane-1-carboxylic acid hydrochloride], the IC50 in test [1] and in test [2] was above 100 µM each time.

Regarding `N[C@@]1(C(=O)O)C[C@H](CCB(O)O)CC[C@@H]1O` (racemic) [Example 15, rac-(1S,2S,5R)-1-Amino-5-(2-boronoethyl)-2-hydroxycyclohexane-1-carboxylic acid hydrochloride], the IC50 in test [1] and in test [2] was above 100 µM each time.

With `CN1C[C@@H](CCB(O)O)C[C@](N)(C(=O)O)C1` (racemic) [Example 59, rac-(3R,5S)-3-amino-5-(2-boronoethyl)-1-methylpiperidine-3-carboxylic acid], the IC50 in test [1] and in test [2] was 1 to 10 µM throughout.

With `N[C@]1(C(=O)O)C[C@H](CCB(O)O)CC[C@H]1CNCC(F)(F)F` (racemic) [Example 36, rac-(1R,2S,5R)-1-amino-5-(2-boronoethyl)-2-(((2,2,2-trifluoroethyl)amino)methyl)cyclohexanecarboxylic acid dihydrochloride], the IC50 was 0.1 to 1 µM in test [1] and above 100 µM in test [2].

As to `N[C@]1(C(=O)O)C[C@H](CCB(O)O)CC[C@H]1O` (racemic) [Example 13, rac-(1R,2R,5R)-1-Amino-5-(2-boronoethyl)-2-hydroxycyclohexane-1-carboxylic acid hydrochloride], the IC50 in test [1] was 10 to 100 µM; in test [2], 0.1 to 1 µM.

For `CN(C)CCC1CC[C@@H](CCB(O)O)CC1(N)C(=O)O` (single isomer, unassigned) [Example 47, dihydrochloride], the values for the IC50 in test [1] and in test [2] were 0.001 to 0.1 µM and 0.1 to 1 µM, respectively.

As for `N[C@]1(C(=O)O)C[C@H](CCB(O)O)[C@@H](O)C1` (racemic) [Example 5, rac-(1R,3S,4S)-1-Amino-3-(2-boronoethyl)-4-hydroxycyclopentane-1-carboxylic acid hydrochloride], the IC50 in test [1] and in test [2] was above 100 µM each time.

For the molecule `NC1(C(=O)O)C[C@H](CCB(O)O)CC[C@@H]1O` (mixture of isomers) [Example 16, rac-(2S,5R)-1-Amino-5-(2-boronoethyl)-2-hydroxycyclohexane-1-carboxylic acid hydrochloride], the IC50 in test [1] and in test [2] was 10 to 100 µM each time.

Take `CC1(CCB(O)O)CCC(N)(C(=O)O)C1` (racemic) [Example 3, 1-amino-3-(2-boronoethyl)-3-methylcyclopentane-1-carboxylic acid]: the IC50 in test [1] and in test [2] was above 100 µM in each case.

(Values after patent publication US12053451B2, “Arginase inhibitors and their therapeutic applications” (OncoArendi Therapeutics S.A., priority 2016, dated 2024).)
